This note sets out measurements from publication PMC4232510, “Identification of Functionally Important Residues of the Rat P2X4 Receptor by Alanine Scanning Mutagenesis of the Dorsal Fin and Left Flipper Domains” (PLoS ONE, 2014).

Where a chain is given by its changes, count along the chain named.

Holding throughout (assay): whole-cell patch clamp, HEK293T cells expressing mutant
Common to all, as to type: cell-based
Settings in all cases: for relative responsiveness: 100 µM agonist 2 s, relative to ATP (100%)
In general terms: Patch clamp records ionic current or voltage across a cell membrane.

In one experiment the target is T1, rP2X4R P290A mutant (Rattus norvegicus, UniProt P51577, P290A).
T1 construct: expressed in transfected cells; host or cells: HEK293T
T1 sequence (P51577 1-388 P290A): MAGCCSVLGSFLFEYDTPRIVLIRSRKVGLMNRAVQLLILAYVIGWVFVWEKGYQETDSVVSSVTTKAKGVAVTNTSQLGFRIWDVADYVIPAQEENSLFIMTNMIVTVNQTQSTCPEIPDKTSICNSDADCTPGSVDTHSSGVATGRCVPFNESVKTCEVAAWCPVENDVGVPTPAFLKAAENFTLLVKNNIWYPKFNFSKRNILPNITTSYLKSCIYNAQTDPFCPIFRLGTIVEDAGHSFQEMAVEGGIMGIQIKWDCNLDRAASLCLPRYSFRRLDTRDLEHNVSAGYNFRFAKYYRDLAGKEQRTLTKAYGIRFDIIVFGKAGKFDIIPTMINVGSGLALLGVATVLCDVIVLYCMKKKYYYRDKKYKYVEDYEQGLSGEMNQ

The next experiment has as its target T2, rP2X4R Y292A mutant (Rattus norvegicus, UniProt P51577, Y292A).
T2 construct: expressed in transfected cells; host or cells: HEK293T
T2 sequence (P51577 1-388 Y292A): T1 sequence (P51577 1-388 P290A) with A290P, Y292A

The next experiment deals with T3, rP2X4R G291A mutant (Rattus norvegicus, UniProt P51577, G291A).
T3 construct: expressed in transfected cells; host or cells: HEK293T
T3 sequence (P51577 1-388 G291A): T1 sequence (P51577 1-388 P290A) with A290P, G291A

[1] abbreviates: 100 µM ATP 60 s, biexponential fit.
The mark [2] stands for this setting: contribution of τdes2, 100 µM ATP 60 s.
[3] abbreviates: decay after removal of 1 or 3 µM ATP, 3 µM IVM.
The mark [4] stands for this setting: naïve receptors, 2–5 s application.
The mark [5] stands for this setting: 3 µM IVM 4-6 min vs IVM-untreated.

A word on the EC50: it is the midpoint of the concentration-response curve.

As to `Nc1ncnc2c1ncn2C1OC(COP(=O)(O)CP(=O)(O)OP(=O)(O)O)C(O)C1O` (stereo not drawn) [α,β-meATP, α,β-methyleneadenosine 5′-triphosphate], the relative responsiveness on rP2X4R P290A mutant is on record as 17.8±2.4 %; on rP2X4R Y292A mutant, 16.2±4.4 %; at rP2X4R G291A mutant, 2.8±0.5 %.

With `Nc1ncnc2c1ncn2[C@@H]1O[C@H](COP(=O)(O)OP(=O)(O)OP(=O)(O)O)[C@@H](O)[C@H]1O` [ATP], the τdes1 at rP2X4R P290A mutant (setting [1]) is on record as 0.8 ± 0.1 s; on rP2X4R Y292A mutant (setting [1]), 1.9 ± 0.2 s; on rP2X4R G291A mutant (setting [1]), 2.0 ± 0.5 s. Also, the results for the τdes2 on rP2X4R P290A mutant (setting [1]), at rP2X4R Y292A mutant (setting [1]) and on rP2X4R G291A mutant (setting [1]) were 12.0 ± 1.5 s, 15.8 ± 0.2 s and 16.5 ± 2.7 s, respectively. Moreover, the Imax on rP2X4R P290A mutant (100–1000 µM ATP) was 0.9 ± 0.1 nA; at rP2X4R Y292A mutant (100–1000 µM ATP), 1.9 ± 0.3 nA; on rP2X4R G291A mutant (100–1000 µM ATP) it was 2.1 ± 0.2 nA. In addition, the results for the “Imax+IVM” value on rP2X4R P290A mutant (ATP after 3 µM IVM 4-6 min), on rP2X4R Y292A mutant (ATP after 3 µM IVM 4-6 min) and on rP2X4R G291A mutant (ATP after 3 µM IVM 4-6 min) were 3.3 ± 0.5 nA, 4.3 ± 0.3 nA and 3.3 ± 0.4 nA, respectively. Also, the “A2 /(A1+A2)” value on rP2X4R P290A mutant (setting [2]) is listed as 53 ± 3%; at rP2X4R Y292A mutant (setting [2]), 57 ± 3%; at rP2X4R G291A mutant (setting [2]) it was 69 ± 12%. Besides, the “τoff +IVM” value at rP2X4R P290A mutant (setting [3]) is 13 ± 1.4 s; at rP2X4R Y292A mutant (setting [3]), 11 ± 1.2 s; on rP2X4R G291A mutant (setting [3]), 13 ± 1.0 s. For the same compound, the values for the 50% effective concentration (EC50) on rP2X4R P290A mutant (setting [4]), at rP2X4R Y292A mutant (setting [4]) and at rP2X4R G291A mutant (setting [4]) were 8 ± 3.4 µM, 7.2 ± 1.9 µM and 15 ± 3.8 µM, respectively. Also, the τdes on rP2X4R P290A mutant (weighted, 100 µM ATP 60 s) is 6.6 ± 0.5 s; on rP2X4R Y292A mutant (weighted, 100 µM ATP 60 s), 10 ± 1.5 s; at rP2X4R G291A mutant (weighted, 100 µM ATP 60 s), 13 ± 2.7 s.

In the case of `CSc1nc(N)c2ncn([C@@H]3O[C@H](COP(=O)(O)OP(=O)(O)OP(=O)(O)O)[C@@H](O)[C@H]3O)c2n1` [2-MeS-ATP, 2-(Methylthio)adenosine 5′-triphosphate], the relative responsiveness on rP2X4R P290A mutant was found to be 50.7±3.7%; on rP2X4R Y292A mutant it was 49.8±8.6%; on rP2X4R G291A mutant it was 36.9±8.8 %.

As for “2′(3′-O-(4-Benzoylbenzoyl)adenosine 5′-triphosphate [BzATP]”, the relative responsiveness at rP2X4R P290A mutant came to 16.9±3.2 %; on rP2X4R Y292A mutant it was 28.9±8.2%; at rP2X4R G291A mutant it was 53.0±4.0 %.

Regarding `Nc1ncnc2c1ncn2[C@@H]1O[C@H](CO[P@](=O)(O)O[P@](=O)(O)O[P@@](=O)(O)S)[C@@H](O)[C@H]1O` [ATPγS, Adenosine 5′-(γ-thio)triphosphate], the relative responsiveness stood at 37.0±11.0% at rP2X4R P290A mutant, 42.3±7.0% on rP2X4R Y292A mutant and 31.6±6.1 % at rP2X4R G291A mutant.

As for `CC[C@H](C)[C@H]1O[C@]2(CC[C@@H]1C)C[C@@H]1C[C@@H](C/C=C(\C)[C@@H](O[C@H]3C[C@H](OC)[C@@H](O[C@H]4C[C@H](OC)[C@@H](O)[C@H](C)O4)[C@H](C)O3)[C@@H](C)/C=C/C=C3\CO[C@@H]4[C@H](O)C(C)=C[C@@H](C(=O)O1)[C@]34O)O2` [IVM, ivermectin], the “Fold incr. Imax” value on rP2X4R P290A mutant (setting [5]) came out at 3.7 ± 0.2 fold; on rP2X4R Y292A mutant (setting [5]) it was 2.0 ± 0.3 fold; at rP2X4R G291A mutant (setting [5]), 1.4 ± 0.02 fold.
